Results as given in patent US6534495B1, “Serine protease inhibitors” (Akzo Nebel, priority 1997, dated 2003).

target: T1, Human thrombin (Homo sapiens, UniProt P00734); experiment: Anti-thrombin assay (hydrolysis of chromogenic substrate S-2238); assay type: biochemical; conditions: S-2238, TNP buffer, 37° C., read-out: IC50, antithrombin activity
T1 construct: purchased Centraal Laboratorium voor Bloedtransfusie, Amsterdam, The Netherlands
Experimental: Thrombin (Factor […]) is a factor in the coagulation cascade.
The anti-thrombin activity of compounds of the present invention was assessed by measuring spectrophotometrically the rate of hydrolysis of the chromogenic substrate s-2238 exterted by thrombin. This assay for anti-thrombin activity in a buffer system was used to assess the IC50-value of a test compound.
Test medium: Tromethamine-NaCl-polyethylene glycol 6000 (TNP) buffer
Reference compound: 12581 (Kabi)
Solubilisation can be assisted with dimethylsulfoxide, methanol, ethanol, acetonitrile or tert.-butyl alcohol which are without adverse effects in concentrations up to 2.5% in the final reaction mixture.
1. Tromethamine-NaCl (TN) buffer
Composition of the buffer:
The pH of the solution is adjusted to 7.4 at 37° C. with HCl (10 mmol.l^−1).
Polyethylene glycol 6000 is dissolved in TN buffer to give a concentration of 3 g.l^−1.
One vial S-2238 (25 mg; Kabi Diagnostica, Sweden) is dissolved in 20 ml TN buffer to give a concentration of 1.25 mg.ml^−1 (2 mmol.l^−1).
Human thrombin (16 000 nKat.vial^−1; Centraal Laboratorium voor Bloedtransfusie, Amsterdam, The Netherlands) is dissolved in TNP buffer to give a stock solution of 835 nKat.ml^−1.
Immediately before use this solution is diluted with TNP buffer to give a concentration of 3.34 nKat.ml^−1.
All ingredients used are of analytical grade
For aqueous solutions ultrapure water (Milli-Q quality) is used.
Preparation of Test and Reference Compound Solutions
The test and reference compounds are dissolved in Milli-Q water to give stock concentrations of 10^−2 mol.l^−1. Each concentration is stepwise diluted with the vehicle to give concentrations of […], 10^−4 and 10^−5 mol.l^−1. The dilutions, including the stock solution, are used in the assay (final concentrations in the reaction mixture: 3·10^−3; 10^−3; 3·10^−4; 10^−4; 3·10^−5; 10^−5, 3·10^−6 and 10^−6 mol.l^−1, respectively).
At room temperature 0.075 ml and 0.025 ml test compound or reference compound solutions or vehicle are alternately pipetted into the wells of a microtiter plate and these solutions are diluted with 0.115 ml and 0.0165 ml TNP buffer, respectively. […] Starting after 1 min of incubation, the absorbance of each sample at 405 nm is measured every 2 min. for a period of 90 min. using a kinetic microtiter plate reader (Twinreader plus, Flow Laboratories).
All data are collected in an IBM personal computer using LOTUS-MEASURE. For each compound concentration (expressed in mol.l^−1 reaction mixture) and for the blank the absorbance is plotted versus the reaction time in min.
Evaluation of responses: For each final concentration the maximum absorbance was calculated from the assay plot. […]

| Structure (SMILES) | IC50 [µM] |
| --- | --- |
| CC(C)OC(=O)C(=O)C(CCCCN)NC(=O)C1CCCN1C(=O)C(NS(=O)(=O)Cc1ccccc1)C(c1ccccc1)c1ccccc1 [Example 40, BzlSO2-D-Dpa-Pro-LysΨ[COCO]—O-iPropyl] | 0.02 |
| CCS(=O)(=O)NC(Cc1ccc(OC)cc1)C(=O)N1CCCC1C(=O)NC(CCCCN)C(=O)C(=O)N1CCC1 [Example 38, EtSO2-D-Tyr(Me)-Pro -LysΨ[COCO]-Azetidine] | 0.11 |
| CC(C)OC(=O)C(=O)C(CCCCN)NC(=O)C1CCCN1C(=O)C(CC1CCCCC1)NS(=O)(=O)CC12CCC(CC1=O)C2(C)C [Example 24, (10-Camphor)SO2-D-Cha-Pro-LysΨ[COCO]—O-iPropyl] | 0.01 |
| NCCCCC(NC(=O)CN1CCCCC(NS(=O)(=O)Cc2ccccc2)C1=O)C(=O)C(N)=O (stereo not drawn) [Example 4, BzlSO2-norLeu(cyclo)-Gly-LysΨ[COCO]—NH2] | 0.09 |

target: T2, Bovine Factor Xa Human (Bos taurus, UniProt P00743); experiment: Anti-factor Xa assay (hydrolysis of chromogenic substrate S-2222); assay type: biochemical; conditions: S-2222, TNP buffer, 37° C.
T2 construct: purchased Kabi Diagnostica
Experimental: Activated Factor X (Xa) is a factor in the coagulation cascade. The anti-Xa activity of compounds of the present invention was assessed by measuring spectrophotometrically the rate of hydrolysis of the chromogenic substrate s-2222 exterted by Xa. This assay for anti-Xa activity in a buffer system was used to assess the IC50-value of the test compound.
In general the followed procedure and test conditions were analogous to those of the anti-thrombin assay as described above. Differences are indicated below.
Reference compound: benzamidine
Solubilisation can be assisted with dimethylsulfoxide, methanol, ethanol, acetonitrile or tert.-butyl alcohol which are without adverse effects in concentrations up to 1% (for DMSO) and 2.5% (for the other solvents) in the final reaction mixture.
One vial S-2222 (15 mg; Kabi Diagnostica, Sweden) is dissolved in 10 ml water to give a concentration of 1.5 mg.ml^−1 (2 mmol.l^−1).
Bovine Factor Xa Human (71 nKat.vial^−1, Kabi Diagnostica) is dissolved in 10 ml TNP buffer and then further diluted with 30 ml TNP buffer to give a concentration of 1.77 nKat.ml^−1. The dilution has to be freshly prepared.
Instead of the S-2238 solution (in anti-thrombin assay), the above S-2222 solution is added to each well in this assay.

T2 sequence (P00743 234-492 limits assumed): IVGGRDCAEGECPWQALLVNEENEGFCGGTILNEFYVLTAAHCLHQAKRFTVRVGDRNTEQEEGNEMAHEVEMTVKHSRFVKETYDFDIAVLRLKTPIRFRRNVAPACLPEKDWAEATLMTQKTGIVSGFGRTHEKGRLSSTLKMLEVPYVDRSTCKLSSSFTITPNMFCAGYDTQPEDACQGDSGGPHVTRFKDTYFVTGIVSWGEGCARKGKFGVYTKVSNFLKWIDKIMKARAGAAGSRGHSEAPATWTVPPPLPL
T2 sequence (P00743 41-180 limits assumed): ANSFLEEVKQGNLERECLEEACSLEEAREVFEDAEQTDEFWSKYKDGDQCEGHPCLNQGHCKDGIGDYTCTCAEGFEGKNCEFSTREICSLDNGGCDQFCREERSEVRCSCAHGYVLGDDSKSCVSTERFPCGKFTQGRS

| Structure (SMILES) | IC50 [µM] |
| --- | --- |
| CCOC(=O)C(=O)C(CCCCN)NC(=O)C1CCCN1C(=O)C(CC1CCCCC1)NS(=O)(=O)CC [Example 5, EthylSO2-D-Cha-Pro-LysTr[COCO]-OEt] | 0.28 |
| NCCCCC(NC(=O)CN1CCCCC(NS(=O)(=O)Cc2ccccc2)C1=O)C(=O)C(=O)NCc1ccccc1 (stereo not drawn) [Example 1, BzlSO2-norLeu(cyclo)-Gly-LysΨ[COCO]-NHBzl] | 0.64 |
| CC(C)OC(=O)C(=O)C(CCCCN)NC(=O)C1CCCN1C(=O)C(CC1CCCCC1)NS(=O)(=O)Cc1ccccc1 [Example 28, BenzylSO2-D-Cha-Pro-LysΨ[COCO]—O-iPropyl] | 0.02 |

target: T3, recombinant human factor VIIa / recombinant human Tissue Factor complex (Homo sapiens, UniProt P08709); experiment: Anti factor VIIa/tissue factor assay (amidolysis of Pefachrome VIIa); assay type: biochemical; conditions: reference compound; 50% inhibition of the amidolytic reaction at 90 min
T3 construct: purchased American Diagnostica Inc, Greenwich, Conn
Description: III. Anti Factor VIIa/Tissue Factor Assay
Vascular damage initiates a series of enzyme generation reactions ultimately leading to the formation of a fibrin gel at the site of the injury. The primary enzyme generation reaction is the generation of activated factor VII (VIIa) from proenzyme factor VII. This activation reaction takes place by an as yet unknown mechanism. […] The activated Factor VII then also binds to membrane-bound TF and this […] tenase complex next converts Factor X into Factor Xa.
Thrombosis develops when there is insufficient control of the coagulation reaction. One way to restore this control is by inhibiting essential coagulation enzymes such as for instance the complex of membrane-bound TF and Factor VIIa. […] A method is described by which the inhibitory potency of compounds towards VIIa/TF complex can be established. Test compounds are mixed at various concentrations with factor VIIa and TF and with a chromogenic substrate, which is known to be split far better by TF-bound VIIa than by free VIIa. The amidolytic reaction taking place is continuously monitored in a microtiter plate reader. Inhibitory potency of the compounds investigated is expressed by the IC50, defined as the concentration of compounds yielding 50% inhibition of the amidolytic reaction, ninety minutes after the start of the reaction.
A ten times concentrated Hepes buffer made by dissolving 29.40 g CaCl2.2H2O, 47.66 g Hepes, 87.66 g NaCl and 30.00 g polyethyleneglycol (PEG) MW=6000 in 1000 ml aqua bidest. After the solution has been heated to 37° C., the pH of the buffer is set on 7.40 with help of 10 molar NaOH. The concentrated buffer solution is stored at 4° C. and is stable for at least two months at this condition. Prior to use the buffer is diluted in aqua bidest. 1 to 8 to obtain a final concentration in the wells (See test procedure) of 20 mM CaCl2, 20 mM Hepes, 150 mM NaCl and 0.3% PEG6000. If compounds are dissolved and diluted in aqua bidest. or another vehicle because of an insufficient solubility the Hepes buffer can be diluted 1 to 6 to preserve the same ionic strength in the test.
Recombinant Human Factor VIIa
Recombinant human factor VIIa is obtained from American Diagnostica Inc, Greenwich, Conn. Each vial contains 1.2 mg recombinant human factor VIIa, which is lyophilized from 2 ml buffer composed of 10 mM glycylglycine, 50 mM NaCl, 10 mM CaCl2, 30 mg/ml mannitol, 0.1% Tween, pH 5.5. The contents of each of these vials is reconstituted with 2 ml aqua bidest. as indicated by the manufacturer. The 2 ml 1.2*10^−5 stock solution thus obtained is divided in smaller fractions, which are stored at −30° C. At this condition these VIIa samples are stable for at least 6 months.
Recombinant Human Tissue Factor
Recombinant human Tissue Factor is obtained from American Diagnostica Inc, Greenwich, Conn. Each vial contains 25 μg recombinant human Tissue Factor (non-lipidated, MW 35000 Dalton), which is lyophilized from 1 ml Tris/HCl buffer (pH 8.0) composed of 150 mM NaCl, 200 mM mannitol and 10 mM CHAPS (Steroid derivative used to solubilize membrane proteins; see Merck Index). The contents of each vial is reconstituted with 1 ml aqua bidest. as indicated by the manufacturer. The 1 ml 7.14×10^−7 M stock solution thus obtained is divided in smaller fractions, which are stored at −30° C. Thus stored these VIIa samples are stable for at least 67 months. […]

T3 sequence (P08709 213-466 limits assumed): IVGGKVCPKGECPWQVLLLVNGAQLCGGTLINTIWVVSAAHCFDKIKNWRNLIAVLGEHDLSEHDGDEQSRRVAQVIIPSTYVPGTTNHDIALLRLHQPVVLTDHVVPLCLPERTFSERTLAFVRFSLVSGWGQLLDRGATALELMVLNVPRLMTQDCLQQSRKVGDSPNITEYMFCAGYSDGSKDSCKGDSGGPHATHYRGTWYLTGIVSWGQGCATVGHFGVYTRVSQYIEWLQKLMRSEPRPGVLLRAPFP
T3 sequence (P08709 61-212 limits assumed): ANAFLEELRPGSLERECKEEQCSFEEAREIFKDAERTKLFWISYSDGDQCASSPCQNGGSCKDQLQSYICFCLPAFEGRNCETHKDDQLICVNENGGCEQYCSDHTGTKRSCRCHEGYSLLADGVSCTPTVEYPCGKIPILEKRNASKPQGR
T3 sequence (P13726 33-295 partner): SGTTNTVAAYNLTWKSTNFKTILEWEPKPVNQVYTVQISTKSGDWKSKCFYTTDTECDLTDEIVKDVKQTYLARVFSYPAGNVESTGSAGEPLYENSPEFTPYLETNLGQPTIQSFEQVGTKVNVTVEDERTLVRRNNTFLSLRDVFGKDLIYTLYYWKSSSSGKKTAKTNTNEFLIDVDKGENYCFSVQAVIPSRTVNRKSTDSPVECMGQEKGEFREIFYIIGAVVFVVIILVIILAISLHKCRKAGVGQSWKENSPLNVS

| Structure (SMILES) | IC50 [µM] |
| --- | --- |
| NC(N)=NCCC[C@H](NC(=O)[C@@H]1CCCN1C(=O)[C@H](N)Cc1ccccc1)C(=O)CCl [Org 34593, reference compound] | 0.3 |

same assay, conditions: single point, at a concentration of 1×10^−5 M

| Structure (SMILES) | percentage inhibition, anti factor VIIa/tissue factor activity [%] |
| --- | --- |
| CCS(=O)(=O)N[C@@H](CC(N)=O)C(=O)N[C@@H](CC(C)C)C(=O)N[C@@H](CCCCN)C(=O)C(=O)OC(C)C [EtSO2-Asn-Leu-LysΨ[COCO]-O-iPropyl] | 56 |
| CCS(=O)(=O)N[C@H](CC(C)C)C(=O)N[C@@H](CCC(N)=O)C(=O)N[C@@H](CCCCN)C(=O)C(=O)OC(C)C [EtSO2-D-Leu-Gln-LysΨ[COCO]-O-iPropyl] | 94 |
| CCS(=O)(=O)N[C@H](Cc1ccccc1)C(=O)N[C@@H](CC(C)C)C(=O)N[C@@H](CCCCN)C(=O)C(=O)OC(C)C [EtSO2-D-Phe-Leu-LysΨ[COCO]-O-iPropyl] | 98 |
| CCS(=O)(=O)N1Cc2ccccc2C[C@@H]1C(=O)N[C@@H](Cc1ccccc1)C(=O)N[C@@H](CCCCN)C(=O)C(=O)OC(C)C [EtSO2-D-3-Tiq-Phe-LysΨ[COCO]-O-iPropyl] | 91 |
